The subject of the assay is GEMIN6. Kind of assay: AP-MS chemical proteomics, GEMIN6. It counts as binding, human. As for the experimental part:
The samples for AP-MS were prepared following pulldown procedure as previously described with minor modifications. Briefly, U2OS cells were lysed in RIPA buffer and the cell lysate was equally divided into two groups: (1) DMSO group (control group): the cell lysate was incubated with 20 μM biotin-labeled compound 1; (2) Cpmd 1 group (sample group): the cell lysate was incubated with 20 μM biotin-labeled compound 1 and 200 μM free compound 1. Each group contains three biological replicates. They were incubated overnight at 4 °C, then 30 μL streptavidin beads (Thermo Fisher, 20353) was added and incubated at 4 °C for 1 h. The beads were then washed with RIPA buffer for 3 times, 10 min/time. […]
Samples were analyzed by nanoLC-MS/MS (nanoRSLC, Thermo Fisher) using an Aurora series (Ion Opticks) reversed phase HPLC column (25 cm length × 75 µm inner diameter) and directly injected to an Orbitrap Eclipse (Thermo Fisher) using a 120 min gradient (mobile phase A = 0.1% formic acid, mobile phase B = 99.9% acetonitrile with 0.1% formic acid; hold 2% B for 5 min, 2–6% B in 0.1 min, 6–25% in 100 min, 25–50% in 15 min) at a flow rate of 350 nL/min. Eluted peptide ions were analyzed using a data-dependent acquisition (DDA) method with resolution settings of 120,000 and 15,000 (at m/z 200) for MS1 and MS2 scans, respectively. […]

Take `Cn1c2c(c(=N)c3c1CCC3)CCC2` [Compound 1, 4-methyl-2,3,4,5,6,7-hexahydrodicyclopenta[b,e]pyridin-8(1H)-imine]: where the note is “GN=GEMIN6 (Q8WXD5), Cmpd minus DMSO, -LOG(P-value) 2.19893”, the Difference is on record as -5.406. Moreover, the “log2 FC (Cmpd 1/DMSO), GEMIN6” value (biotin-Cmpd 1 pulldown, competition with 200 μM compound 1 relative to DMSO, U2OS lysate) was −5.4.

(Values after paper PMC9481570, “A small molecule antagonist of SMN disrupts the interaction between SMN and RNAP II” (Nature Communications, 2022).)
